Assay results from patent publication US20080299123A1, “TREATMENT OF CHEMOTHERAPY- OR RADIOTHERAPY-RESISTANT TUMORS” (Deutsches Krebsforschungszentrum Stiftung des offentlichen …, priority 2006, published 2008).

How the values were obtained:
[1] = system: L1CAM; experiment: L1CAM expression in PT45-P1 cells; assay type: cell-based, human; settings: 20 ng/mL IL1β
Description: (a) PT45-P1res cells were either left untreated (w/o) or treated with 250 ng/mL IL1-RA for 6 hours. In parallel, PT45-P1 cells were either left untreated (w/o) or treated with 20 ng/mL IL1β for 6 hours. L1CAM mRNA levels were analysed by real-time PCR and compared with β-actin used as control. Data from duplicate measurements are expressed as amount of mRNA in arbitrary units. Results from one representative out of three experiments are shown. (b) Cellular lysates from PT45-P1res and PT45-P1 cells were subjected to western blotting using an antibody for the detection of full-length L1CAM. PT45-P1res cells were either left untreated (w/o) or treated with 250 ng/mL IL1-RA for 24 hours. In parallel, PT45-P1 cells were either left untreated (w/o) or treated with 20 ng/mL IL1β for 24 hours. In all experiments, a HSP90 antibody was used as a control for equal protein load.
Cells were seeded into 6 well and 12 well plates, respectively, and transfected or treated as indicated. […] Protein concentrations were determined using the Dc Protein assay (BioRad). […]
2 μg of total RNA were reverse-transcribed into single-stranded cDNA, as described previously (Schafer et al., 1999). […] Data were collected during annealing steps and were further analysed by using the i-Cycler iQ Optical system software (BioRad). All samples were analysed in duplicates and data are expressed as amount of mRNA in arbitrary units.

[2] = system: cathepsin B and CRABPII transcription; experiment: L1-dependent gene regulation by qPCR in HEK293-hL1wt cells; assay type: cell-based, human; settings: preincubation 96 h
Description: (§1) (A) Analysis of L1-32 cleavage by γ-secretase. Cells were treated for 48 h at 37° C. with presenilin inhibitor IX (DAPT) or for control with DMSO. Isolated membranes were incubated for 2 h at 37° C. and then separated into pellet or supernatant (SN) fractions by ultracentrifugation. Lanes 1 to 2 show cells treated with DMSO (vehicle). Lanes 3 and 4 show cells preincubated with DAPT. (B) SKOV3ip cells were treated with DAPT either in the presence or absence of the metalloprotease inhibitor TAPI-0 for 24 hr. Cells were lysed in BOG lysis buffer and analyzed by Western blot analysis. The cell supernatant was analyzed for soluble L1 using mAb L1-11A and the cell lysate was examined for L1-32 using peytL1. (C) HEK293 or HEK293-hL1wt cells were treated with DMSO, DAPT, TAPI-0 or both inhibitors for 96 h. mRNA was transcribed to cDNA and analyzed by qPCR for the genes CRABPII and cathepsin B. (D) Analysis of ERK phosphorylation in SKOV3ip cells after treatment with the indicated compounds.
We next investigated whether L1-mediated gene regulation was dependent on L1-processing, by carrying out inhibition experiments. […]
mRNA was isolated using the Quiagen RNAeasy mini kit (Quiagen Hilden, Germany). […] After exposing of the hybridized membranes, the PhosphorImager screens were scanned (Fuji FLA-3000, 100 μm resolution, Fuji BAS-reader software). […]

[3] = system: γ-secretase; experiment: In vitro γ-secretase activity on membranes of CHO-hL1wt cells; assay type: cell-based; settings: cells preincubated 48 h with inhibitor; membranes 2 h at 37° C.
Description: as §1
Consecutive cleavage by both enzymes is a hallmark of Notch, APP and CD44 signaling that is followed by translocation of the intracellular portion to the nucleus (22). To verify this observation for tumor cells, we analyzed the processing of L1-32 in more detail. […] Indeed, we detected L1-28 in the supernatant fraction (FIG. 11A, lane 2). […]

[4] = system: L1; experiment: L1 processing in SKOV3ip cells (L1-32 in lysate, soluble L1 in supernatant), Western blot; assay type: cell-based, human; settings: 24 hr
Description: as §1
(§2) (A) Effect of L1-antibodies on ERK phosphorylation in SKOV3ip cells. The cells were incubated for 24 hr at 37° C. with the indicated purified antibodies to L1 (10 μg/ml) or isotype control IgG. […] Soluble L1 in the supernant and L1-32 in the cell lysate were analyzed by Western blot. (C) mRNA was isolated from antibody treated SKOV3ip cells, transcribed to cDNA and analyzed by qPCR for the indicated genes. […]

[5] = system: ERK phosphorylation; experiment: ERK phosphorylation in SKOV3ip cells; assay type: cell-based, human; settings: treatment with DAPT, TAPI-0
Description: as §1, §2

Compound	L1CAM expression [1]	L1-dependent regulation of transcription for cathepsin B and CRABPII [2]	release of L1-28 from the membrane into the supernatant [3]	L1-32 in cell lysate [4]	soluble L1 in the medium [4]	ERK activation in treated cells [5]
IL1β: recombinant human Interleukin 1 beta from R&D Systems	enhanced L1CAM expression					
C[C@H](NC(=O)Cc1cc(F)cc(F)c1)C(=O)N[C@H](C(=O)OC(C)(C)C)c1ccccc1 [DAPT]		blocked	could not release this fragment into the supernatant	strong increase in the metalloprotease cleavage fragment L1-32	not increased by the treatment	did not interfere with ERK activation
